Measured values reported in publication PMC12040169 (PLOS Biology, 2025).
Several values for one entry are separate records, joined by “and”; a condition that tells them apart may be missing. Equal values may be shown once.

Columns and labels:
HeLa = details: bulk resorufin, single well, 28.5 h, 10 µM, Bulk resorufin fluorescence
in vitro = details: human, hela cells, % viability

SMILES	% viability (HeLa)	viability at 28.5 h, 10 µM (in vitro)	viability at 28.5 h, 10 µM (in vitro; bulk resorufin, single well)
CCn1cc(C(=O)NN)c(=O)c2cc(F)c(N3CCOCC3)cc21 [CBK263050]	107%	99.9%	–
COC(=O)[C@@H]1Cc2c([nH]c3ccccc23)[C@H]2C[C@H](NCCO)C[C@@H](c3ccccc3)N21 [CBK289167]	97.8%	94.8%	–
Cc1ccc(CN2CCNC(=O)C2CC(=O)O)o1 (centres unmarked) [CBK269966]	91.7%	91.8%	–
C[C@H]1CN2CCCC2CN1Cc1c(F)cccc1F (some centres unmarked) [CBK285451]	102%	89.8%	–
CCCOc1cccc(C(=O)Nc2cccc(-c3nc4ncccc4o3)c2C)c1 [CBK072326]	106%	97.9%	–
Cc1cc(-c2cncc(NCCc3c[nH]c4ccccc34)n2)cc(C)c1O [CBK107896]	83%	101%	–
O=C1CCCc2c1nc(-c1ccccc1Cl)n2O [CBK271948]	82.2%	89.5%	–
Cc1cc(CNS(=O)(=O)c2sc3ccc(Cl)cc3c2C)no1 [CBK062277]	92.3%	109%	–
CC(C)[C@@H](CO)Nc1nccnc1-c1cccc(C(=O)O)c1 [CBK036665]	93%	85.6%	–
CC(C)C(=O)N1CCC[C@H]1Cn1nc(-c2cccs2)ccc1=O [CBK285469]	96.1%	97.8%	–
CS(=O)(=O)Nc1cc2ccccc2c(-c2ccc(S(C)(=O)=O)cc2)n1 [CBK085756]	107%	95.6%	–
CS(=O)(=O)N1CC=C[C@H]1C(=O)NCc1ccc(F)cc1 [CBK284270]	87.2%	97.6%	–
CCCNC(=O)NS(=O)(=O)c1ccc(C)cc1 [CBK288527]	90.2%	100%	–
O=C(O)CCc1ccc(-c2cccs2)n1-c1cc(Cl)ccc1O [CBK131890]	106%	104%	–
CCn1c(C)nc2cc(C(=O)N3N=CCC3(O)C(F)(F)F)ccc21 (centres unmarked) [CBK019301]	108%	105%	–
Cc1nn(C)c(N2CCNCC2)c1NC(=O)C1CCC1 [CBK045923T]	96.2%	91.8%	–
O=C(NC[C@H]1CCCN(C(=O)c2cccnc2)C1)c1cccs1 [CBK284264]	90.3%	81.6%	–
CCCC(=O)NCc1ccc(OC2CCNCC2)cc1 [CBK024489T]	112%	95.6%	–
CC(C)(C)c1nc(CN2CCOCC2)ccc1O [CBK026614C]	111%	112%	–
O=C(CN1C(=O)[C@H]2CCCN2C(=O)c2ccccc21)N1CCCCC1 [CBK282435]	80.4%	90.6%	–
O[C@@H]1C[C@H]2CN(Cc3ccsc3)[C@@H](Cc3ccccc3)CN2C1 [CBK285376]	95.8%	91.9%	–
N#Cc1cccc(-c2ccc3c(c2)COC(C2CCN(C(=O)OCc4ccccc4)CC2)O3)c1 (centres unmarked) [CBK144640]	93%	101%	–
CCCC(=O)N1CCC[C@@H](Cn2nc(-c3cccs3)ccc2=O)C1 [CBK282245]	98%	88.5%	–
CNC(=S)N1CCN(c2nsc3ccccc23)CC1 [CBK288515]	83.2%	83.5%	–
COC(=O)c1ccc(CN2CC3CCCN3C[C@@H]2C)cc1 (some centres unmarked) [CBK285403]	103%	111%	–

SMILES	% viability (HeLa)	viability at 28.5 h, 10 µM (in vitro)	viability at 28.5 h, 10 µM (in vitro; bulk resorufin, single well)
COc1ccc(-c2cc(C3CC3)nc(SCC(=O)O)c2C#N)cc1 [CBK262690]	90.1% and 95%	91.3%	–
Cn1nnc2cc(NC(=O)N3CC4(C)CC3CC(C)(C)C4)ccc21 (centres unmarked) [CBK304389]	95.3%	94.6%	–
N#CCCN(C(=O)NC(c1ccccc1)c1ccccc1)C1CCCCC1 [CBK156354]	104%	98.7%	–
CCC(Sc1nc(C)c(Cc2ccccc2)c(=O)[nH]1)C(=O)O (centres unmarked) [CBK270058]	91.7%	91.2%	–
C[C@H]1CN2CCCC2CN1Cc1ccccc1F (some centres unmarked) [CBK285450]	103%	96.5%	–
CC(C)(C)OC(=O)N1CCC[C@@H]1C(=O)c1cccs1 [CBK284289]	90.7%	100%	–
Clc1ccc(CN2CCC(Oc3cncc(OCC4COc5ccccc5O4)n3)C2)cc1Cl (centres unmarked) [CBK084361]	90.5%	107%	–
COC(=O)c1ccc(-c2nc3nnc(C)n3[nH]2)cc1 [CBK027508]	87.7%	103%	–
O=C(C1CCC1)N1CCC[C@H]1Cn1nc(-c2cccs2)ccc1=O [CBK284251]	78.8%	80.9%	–
CC(C)Nc1cc(Sc2ccc(Cl)c(Cl)c2)ncn1 [CBK089500]	83.3%	90.8%	–
CC(C(=O)Nc1cncc(OC2CCNCC2)n1)c1ccccc1 (centres unmarked) [CBK026733T]	110%	99.2%	–
Cc1ccc(CN2CC3CCCN3C[C@H]2C)o1 (some centres unmarked) [CBK285407]	104%	87.1%	–
O=C(O)c1cccc(Sc2ncccc2C(F)(F)F)c1 [CBK093589]	108%	103%	–
CCCC(=O)Nc1c(C)nn(C)c1N1CCNCC1 [CBK045924T]	102%	87.2%	–
C=CCNC(=O)[C@@H]1C=CCN1C(=O)c1ccc(OC)cc1 [CBK284317]	76.8%	95.4%	–
CCCn1ncc(CN2C[C@@H]3CCCN3C[C@@H]2CCSC)c1C [CBK285426]	107%	104%	–
CCOc1ccc(-c2ccnc(NC[C@@H]3CCCO3)n2)cc1C(=O)O [CBK306568]	89.2%	86.5%	–
CC(=O)Nc1ccc(S(N)(=O)=O)c2ccccc12 [CBK288522]	94%	83.5%	–
CC(C)[C@@H](Cn1nc(C2CC2)ccc1=O)NC(=O)C1CC1 [CBK284309]	85.9%	86.1%	–
C[C@@H]1CN2C[C@H](O)CC2CN1Cc1ccc2c3ccccc3n(C)c2c1 (some centres unmarked) [CBK284554]	102%	91.5%	–
NCCCOc1nc2ccccc2nc1C(F)(F)F [CBK115295]	109%	96.8%	–
COc1cc(CNCc2cccnc2)cc(Br)c1OCc1ccc(Cl)cc1 [CBK074596C]	95.5%	107%	–
CCCCn1nc(C)c(-c2cc(C(=O)O)[nH]n2)c1C [CBK287047]	84.5%	95%	–
CC[C@H](CO)NC(=O)c1coc(COc2ccc3sc(C)nc3c2)n1 [CBK306602]	93.5%	85.3%	–
COc1ccccc1CN1CC2CCCN2C[C@H]1C (some centres unmarked) [CBK285409]	106%	90.6%	–

SMILES	% viability (HeLa)	viability at 28.5 h, 10 µM (in vitro)	viability at 28.5 h, 10 µM (in vitro; bulk resorufin, single well)
O=c1[nH]nc2ccc(S(=O)(=O)N3CCCC3)cn12 [CBK288033]	91.1%	80.5%	–
O=C(CN1C(=O)C2CCCCC2C1=O)Nc1ccccc1C(=O)O (centres unmarked) [CBK264130]	108%	91.5%	–
O=C(CN1C(=O)[C@@H]2CCCN2C(=O)c2ccccc21)NCc1ccccc1 [CBK286318]	89.5%	98.6%	–
COc1ccc2[nH]cc(CC(=O)N3CCC(C#N)(c4ccccc4)CC3)c2c1 [CBK091403]	105%	–	96.6%
CCc1cc(CN(CC)CC)n[nH]1 [CBK018654]	94.5%	114%	–
CC[C@H](Cn1ncc2ccccc2c1=O)NC(=O)c1cccs1 [CBK284301]	90.5%	96.7%	–
C[C@H]1CN2CCCC2CN1Cc1cccc(F)c1 (some centres unmarked) [CBK285425]	104%	97.7%	–
C=Cn1ncc(CN2C[C@@H]3CCCN3C[C@H]2CCSC)c1C [CBK285440]	101%	99.4%	–
Oc1ccccc1-c1cc(-c2cc3ccccc3o2)no1 [CBK019513]	117%	113%	–
C=CCNC(=O)Cn1c([C@@H]2CCCO2)cc2cccnc21 [CBK282873]	110%	98.2%	–
C[C@H](Cn1nc2c(cc1=O)CCCCC2)NC(=O)c1ccccc1F [CBK284547]	91.5%	89.5%	–
C[C@H](Cn1nc2c(cc1=O)CCCCC2)NC(=O)c1cccc(F)c1 [CBK284558]	90%	85.8%	–
Cc1onc(-c2ccccc2)c1C(=O)NCCNC(=O)c1c(-c2ccccc2)noc1C [CBK085092]	108%	106%	–
Nc1nc2cccnc2cc1-c1cccc(OCc2ccccc2)c1 [CBK081206]	105%	99.2%	–
Cc1nn(CC(C)C(=O)O)c(C)c1Br (centres unmarked) [CBK269756]	86.7%	92.4%	–
C[C@@H]1CN2CCCC2CN1Cc1ccc(N(C)C)cc1 (some centres unmarked) [CBK285406]	102%	101%	–
COC(=O)c1ccccc1OC[C@@H]1CN(C(=O)C(C)(C)N)C[C@H]1c1cc2ccccc2o1 [CBK022525T]	92.2%	106%	–
C[C@@H]1CN2CCCC2CN1Cc1ccc2ccccc2n1 (some centres unmarked) [CBK285408]	104%	101%	–
O=C(CC1Nc2ccccc2NC1=O)Nc1ccccc1 (centres unmarked) [CBK265365]	103%	99.8%	–
C[C@H]1CN2C[C@H](O)CC2CN1Cc1ccc(Cl)c(Cl)c1 (some centres unmarked) [CBK285404]	94.3%	111%	–
C[C@@H](Cn1c(=O)oc2ccccc21)NC(=O)Cc1ccsc1 [CBK284535]	84.7%	96.9%	–
N#CCCCN1CCN(c2nccnc2OC2CCCCC2)CC1 [CBK082841T]	107%	87.4%	–
O=C(O)CCCCCN1C(=O)CC(c2ccc(Cl)cc2)CC1=O [CBK287245]	102%	104%	–
